# Data reported in patent publication US6737383B1, “Herbicidal oxadiazolidines” (priority 1999, dated 2004).
# Assays:
# pigweed = experiment: Test B pre/postemergence pigweed; assay type: in vivo, Amaranthus retroflexus
# Summary of the method: (§1)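 Response is a visual 0-to-10 score relative to untreated plants, where 0 means no effect and 10 means complete control, taken twelve to sixteen days after application. Treatments went onto soil at planting and onto foliage of 1- to 4-leaf plants, using a surfactant-containing non-phytotoxic solvent.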
# rice = experiment: Test B flood test rice; assay type: in vivo, Oryza sativa
# Summary of the method: (§2)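 Read-out is a visual response score from 0 (no effect) to 10 (complete control), assigned by comparison with untreated controls. Treatment was applied at the 2-leaf stage, and plants stayed in the greenhouse for twelve to sixteen days before scoring.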
# sugar beet = experiment: Test B pre/postemergence sugar beet; assay type: in vivo, Beta vulgaris
# Summary of the method: as §1
# rape = experiment: Test B pre/postemergence rape; assay type: in vivo, Brassica napus
# Summary of the method: as §1
# blackgrass = experiment: Test B pre/postemergence blackgrass; assay type: in vivo, Alopecurus myosuroides
# Summary of the method: as §1
# surinam grass = experiment: Test B pre/postemergence surinam grass; assay type: in vivo, Brachiaria decumbens
# Summary of the method: as §1
# wild oat = experiment: Test B pre/postemergence wild oat; assay type: in vivo, Avena fatua
# Summary of the method: as §1
# velvetleaf = experiment: Test B pre/postemergence velvetleaf; assay type: in vivo, Abutilon theophrasti
# Summary of the method: as §1
# corn = experiment: Test B pre/postemergence corn; assay type: in vivo, Zea mays
# Summary of the method: as §1
# wheat = experiment: Test B pre/postemergence wheat; assay type: in vivo, Triticum aestivum
# Summary of the method: as §1
# morningglory = experiment: Test B pre/postemergence morningglory; assay type: in vivo, Ipomoea hederacea
# Summary of the method: as §1
# cocklebur = experiment: Test B pre/postemergence cocklebur; assay type: in vivo, Xanthium strumarium
# Summary of the method: as §1
# smallflower flatsedge = experiment: Test B flood test smallflower flatsedge; assay type: in vivo, Cyperus difformis; details: for S. Flatsedge plant response rating: scale of 0 to 10 where 0 is no effect and 10 is complete control
# Summary of the method: as §2
# bedstraw = experiment: Test B pre/postemergence bedstraw; assay type: in vivo, Galium aparine
# Summary of the method: as §1
# giant foxtail = experiment: Test B pre/postemergence giant foxtail; assay type: in vivo, Setaria faberii
# Summary of the method: as §1
# soybean = experiment: Test B pre/postemergence soybean; assay type: in vivo, Glycine max
# Summary of the method: as §1
# [1] = Postemergence, Rate 125 g/ha, scale of 0 to 10 where 0 is no effect and 10 is complete control
# [2] = Preemergence, Rate 31 g/ha, visual rating, scale 0 to 10 (0 no effect, 10 complete control)
# [3] = Preemergence, Rate 62 g/ha, scale 0 to 10 (0 no effect, 10 complete control)
# [4] = Preemergence, Rate 125 g/ha, 0 is no effect, 10 is complete control
# [5] = Preemergence, Rate 250 g/ha, scale 0 to 10, 0 is no effect, 10 is complete control
# [6] = Rate 31 g/ha, Postemergence, scale 0 to 10
# [7] = Rate 62 g/ha, Postemergence, scale of 0 to 10 where 0 is no effect and 10 is complete control
# [8] = Rate 250 g/ha, Postemergence, scale 0 to 10, 0 is no effect, 10 is complete control
# [9] = Rate 250 g/ha, Postemergence (flood test), scale 0 to 10, 0 is no effect, 10 is complete control
smiles,measurement,setting,value
Cc1noc(C)c1-n1c(=O)on(C(=O)N(c2ccc(F)cc2)C(C)C)c1=O [Compound 155],Redroot pigweed plant response rating,pigweed; [1],0
same,Redroot pigweed plant response rating,pigweed; [2],0
same,Redroot pigweed plant response rating,pigweed; [3],0
same,Redroot pigweed plant response rating (0 to 10 scale),pigweed; [4],0
same,Redroot pigweed plant response rating,pigweed; [5],3
same,Redroot pigweed plant response rating,pigweed; [6],0
same,Redroot pigweed plant response rating,pigweed; [7],0
same,"Plant response rating, Redroot pigweed",pigweed; [8],0
same,Rice plant response rating,"rice; Postemergence (flood test species), Rate 125 g/ha, scale of 0 to 10 where 0 is no effect and 10 is complete control",0
same,Rice plant response rating,"rice; Rate 31 g/ha, Postemergence section (flood test species), scale 0 to 10",0
same,Rice plant response rating,"rice; Rate 62 g/ha, Postemergence section, flood test species, scale of 0 to 10 where 0 is no effect and 10 is complete control",0
same,"Plant response rating, Rice",rice; [9],0
same,Sugarbeets plant response rating,sugar beet; [1],0
same,Sugarbeets plant response rating,sugar beet; [2],0
same,Sugarbeets plant response rating,sugar beet; [3],0
same,Sugarbeets plant response rating (0 to 10 scale),sugar beet; [4],0
same,Sugarbeets plant response rating,sugar beet; [5],0
same,Sugarbeets plant response rating,sugar beet; [7],0
same,"Plant response rating, Sugarbeets",sugar beet; [8],0
same,Rape plant response rating,rape; [1],0
same,Rape plant response rating,rape; [2],0
same,Rape plant response rating,rape; [3],0
same,Rape plant response rating (0 to 10 scale),rape; [4],0
same,Rape plant response rating,rape; [5],0
same,Rape plant response rating,rape; [6],0
same,Rape plant response rating,rape; [7],0
same,"Plant response rating, Rape",rape; [8],0
same,Blackgrass plant response rating,blackgrass; [1],0
same,Blackgrass plant response rating,blackgrass; [2],0
same,Blackgrass plant response rating,blackgrass; [3],0
same,Blackgrass plant response rating (0 to 10 scale),blackgrass; [4],0
same,Blackgrass plant response rating,blackgrass; [5],2
same,Blackgrass plant response rating,blackgrass; [6],0
same,Blackgrass plant response rating,blackgrass; [7],0
same,"Plant response rating, Blackgrass",blackgrass; [8],2
same,B. signalgrass plant response rating,surinam grass; [1],0
same,B. signalgrass plant response rating,surinam grass; [2],0
same,B. signalgrass plant response rating,surinam grass; [3],0
same,B. signalgrass plant response rating (0 to 10 scale),surinam grass; [4],0
same,B. signalgrass plant response rating,surinam grass; [5],0
same,B. signalgrass plant response rating,surinam grass; [6],0
same,B. signalgrass plant response rating,surinam grass; [7],0
same,"Plant response rating, B. signalgrass",surinam grass; [8],0
same,Wild oats plant response rating,wild oat; [2],0
same,Wild oats plant response rating,wild oat; [3],0
same,Wild oats plant response rating (0 to 10 scale),wild oat; [4],0
same,Wild oats plant response rating,wild oat; [5],0
same,Wild oats plant response rating,wild oat; [7],0
same,"Plant response rating, Wild oats",wild oat; [8],0
same,Velvetleaf plant response rating,velvetleaf; [2],0
same,Velvetleaf plant response rating,velvetleaf; [3],0
same,Velvetleaf plant response rating (0 to 10 scale),velvetleaf; [4],0
same,Velvetleaf plant response rating,velvetleaf; [5],0
same,Velvetleaf plant response rating,velvetleaf; [7],0
same,"Plant response rating, Velvetleaf",velvetleaf; [8],0
same,Corn plant response rating,corn; [1],0
same,Corn plant response rating,corn; [2],0
same,Corn plant response rating,corn; [3],0
same,Corn plant response rating (0 to 10 scale),corn; [4],0
same,Corn plant response rating,corn; [5],0
same,Corn plant response rating,corn; [6],0
same,Corn plant response rating,corn; [7],0
same,"Plant response rating, Corn",corn; [8],2
same,Wheat plant response rating,wheat; [2],0
same,Wheat plant response rating,wheat; [3],0
same,Wheat plant response rating (0 to 10 scale),wheat; [4],0
same,Wheat plant response rating,wheat; [5],0
same,Wheat plant response rating,wheat; [7],0
same,"Plant response rating, Wheat",wheat; [8],0
same,Morningglory plant response rating,morningglory; [1],0
same,Morningglory plant response rating,morningglory; [2],0
same,Morningglory plant response rating,morningglory; [3],0
same,Morningglory plant response rating (0 to 10 scale),morningglory; [4],0
same,Morningglory plant response rating,morningglory; [5],0
same,Morningglory plant response rating,morningglory; [6],0
same,Morningglory plant response rating,morningglory; [7],0
same,"Plant response rating, Morningglory",morningglory; [8],2
same,Cocklebur plant response rating,cocklebur; [1],0
same,Cocklebur plant response rating,cocklebur; [2],0
same,Cocklebur plant response rating,cocklebur; [3],0
same,Cocklebur plant response rating (0 to 10 scale),cocklebur; [4],0
same,Cocklebur plant response rating,cocklebur; [5],0
same,Cocklebur plant response rating,cocklebur; [6],0
same,Cocklebur plant response rating,cocklebur; [7],0
same,"Plant response rating, Cocklebur",cocklebur; [8],0
same,S. Flatsedge plant response rating,"smallflower flatsedge; Postemergence (flood test species), Rate 125 g/ha",0
same,S. Flatsedge plant response rating,"smallflower flatsedge; Rate 62 g/ha, Postemergence section, flood test species",0
same,"Plant response rating, S. Flatsedge",smallflower flatsedge; [9],0
same,Bedstraw plant response rating,bedstraw; [1],0
same,Bedstraw plant response rating,bedstraw; [2],0
same,Bedstraw plant response rating,bedstraw; [3],0
same,Bedstraw plant response rating (0 to 10 scale),bedstraw; [4],0
same,Bedstraw plant response rating,bedstraw; [5],0
same,Bedstraw plant response rating,bedstraw; [6],0
same,Bedstraw plant response rating,bedstraw; [7],0
same,"Plant response rating, Bedstraw",bedstraw; [8],0
same,Giant foxtail plant response rating,giant foxtail; [1],3
same,Giant foxtail plant response rating,giant foxtail; [2],0
same,Giant foxtail plant response rating,giant foxtail; [3],0
same,Giant foxtail plant response rating (0 to 10 scale),giant foxtail; [4],0
same,Giant foxtail plant response rating,giant foxtail; [5],2
same,Giant foxtail plant response rating,giant foxtail; [6],0
same,Giant foxtail plant response rating,giant foxtail; [7],1
same,"Plant response rating, Giant foxtail",giant foxtail; [8],6
same,Soybean plant response rating,soybean; [1],1
same,Soybean plant response rating,soybean; [2],0
same,Soybean plant response rating,soybean; [3],0
same,Soybean plant response rating (0 to 10 scale),soybean; [4],0
same,Soybean plant response rating,soybean; [5],0
same,Soybean plant response rating,soybean; [7],1
same,"Plant response rating, Soybean",soybean; [8],1
